Measured values taken from US8299048B2, “Hexahydrocyclopentyl[f]indazole sulfonamides and derivatives thereof as selective glucocorticoid receptor modulators” (Merck Sharp & Dohme Corp., priority 2008, dated 2012).

Target: T1, glucocorticoid receptor (Homo sapiens, UniProt P04150)
T1 construct: endogenous in cells
T1 sequence (P04150 1-777): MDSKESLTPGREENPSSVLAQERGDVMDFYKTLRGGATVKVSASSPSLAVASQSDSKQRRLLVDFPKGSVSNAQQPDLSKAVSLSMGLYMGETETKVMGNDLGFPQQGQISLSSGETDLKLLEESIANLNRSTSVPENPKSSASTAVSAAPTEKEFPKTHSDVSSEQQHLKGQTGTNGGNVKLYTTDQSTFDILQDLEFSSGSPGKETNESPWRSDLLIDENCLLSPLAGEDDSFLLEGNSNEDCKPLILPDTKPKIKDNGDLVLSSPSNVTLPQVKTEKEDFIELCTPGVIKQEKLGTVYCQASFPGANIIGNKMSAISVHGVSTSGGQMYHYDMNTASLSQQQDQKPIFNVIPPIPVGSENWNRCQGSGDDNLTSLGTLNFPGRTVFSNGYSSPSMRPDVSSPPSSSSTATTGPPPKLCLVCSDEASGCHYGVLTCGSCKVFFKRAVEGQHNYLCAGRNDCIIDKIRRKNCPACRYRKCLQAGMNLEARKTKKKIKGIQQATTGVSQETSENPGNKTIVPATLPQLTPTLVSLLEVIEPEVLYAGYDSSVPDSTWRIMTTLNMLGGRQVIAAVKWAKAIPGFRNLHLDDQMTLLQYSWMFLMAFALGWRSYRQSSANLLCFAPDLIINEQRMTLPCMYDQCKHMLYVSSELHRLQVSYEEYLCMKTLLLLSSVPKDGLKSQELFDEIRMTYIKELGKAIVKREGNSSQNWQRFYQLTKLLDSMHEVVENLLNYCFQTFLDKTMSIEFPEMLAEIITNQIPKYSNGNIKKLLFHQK
Test: Ligand binding assay (GR BIND)
Outline: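 Cytosol from freeze–thawed cells in TEGM (pH 7.2, 10 mM molybdate) was incubated overnight at 4 °C with compound and [3H]-dexamethasone trace (added as 6 nM solution), 2% EtOH final. Bound ligand was captured on hydroxylapatite, filtered, washed and scintillation counted. Values were calculated with dexamethasone as reference.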

Row | Compound | Ki
1 | C[C@]12Cc3cnn(-c4ccc(F)cc4)c3C=C1CC[C@@H]2CN(CCO)S(=O)(=O)c1ccc(Oc2cccc(Cl)c2C#N)cc1 [Example 69, 4-(3-chloro-2-cyanophenoxy)-N-{[(4αR,5S)-1-(4-fluorophenyl)-4α-methyl-1,4,4α,5,6,7-hexahydrocyclopenta[f]indazol-5-yl]methyl}-N-(2-hydroxyethyl)benzenesulfonamide] | 8.7 nM
2 | Cc1nn(C)c(Cl)c1S(=O)(=O)N(CCO)C[C@H]1CCC2=Cc3c(cnn3-c3ccc(F)cc3)C[C@@]21C [Example 83, 5-chloro-N-{[(4αR,5S)-1-(4-fluorophenyl)-4α-methyl-1,4,4α,5,6,7-hexahydrocyclopenta[f]indazol-5-yl]methyl}-N-(2-hydroxyethyl)-1,3-dimethyl-1H-pyrazole-4-sulfonamide] | 3.7 nM
3 | COCCN(C[C@H]1CCC2=Cc3c(cnn3-c3ccc(F)cc3)C[C@@]21C)S(=O)(=O)c1ccccc1F [Example 94, 2-fluoro-N-{[(4αR,5S)-1-(4-fluorophenyl)-4α-methyl-1,4,4α,5,6,7-hexahydrocyclopenta[f]indazol-5-yl]methyl}-N-(2-methoxyethyl)benzenesulfonamide] | 2.9 nM
4 | C[C@]12Cc3cnn(-c4ccc(F)cc4)c3C=C1CC[C@@H]2CN(CCc1ccccc1F)S(=O)(=O)c1ccccc1F [Example 86, 2-fluoro-N-[2-(2-fluorophenyl)ethyl]-N-{[(4αR,5S)-1-(4-fluorophenyl)-4α-methyl-1,4,4α,5,6,7-hexahydrocyclopenta[f]indazol-5-yl]methyl}benzenesulfonamide] | 4.2 nM
5 | COc1ccccc1CCN(C[C@H]1CCC2=Cc3c(cnn3-c3ccc(F)cc3)C[C@@]21C)S(=O)(=O)c1ccccc1F [Example 90, 2-fluoro-N-{[(4αR,5S)-1-(4-fluorophenyl)-4α-methyl-1,4,4α,5,6,7-hexahydrocyclopenta[f]indazol-5-yl]methyl}-N-[2-(2-methoxyphenyl)ethyl]benzenesulfonamide] | 3.6 nM
6 | C[C@]12Cc3cnn(-c4ccc(F)cc4)c3C=C1CC[C@@H]2CN(CCO)S(=O)(=O)c1ccccc1C(F)(F)F [Example 70, N-{[(4αR,5S)-1-(4-fluorophenyl)-4α-methyl-1,4,4α,5,6,7-hexahydrocyclopenta[f]indazol-5-yl]methyl}-N-(2-hydroxyethyl)-2-(trifluoromethyl)benzenesulfonamide] | 4.5 nM
7 | C[C@]12Cc3cnn(-c4ccc(F)cc4)c3C=C1CC[C@@H]2CN(CCO)S(=O)(=O)Cc1cccc(C(F)(F)F)c1 [Example 63, N-{[(4αR,5S)-1-(4-fluorophenyl)-4α-methyl-1,4,4α,5,6,7-hexahydrocyclopenta[f]indazol-5-yl]methyl}-N-(2-hydroxyethyl)-1-[3-(trifluoromethyl)phenyl]methanesulfonamide] | 9.1 nM
8 | CC(=O)Nc1ccc(S(=O)(=O)N(CCO)C[C@H]2CCC3=Cc4c(cnn4-c4ccc(F)cc4)C[C@@]32C)cc1 [Example 85, N-(4-{[{[(4αR,5S)-1-(4-fluorophenyl)-4α-methyl-1,4,4α,5,6,7-hexahydrocyclopenta[f]indazol-5-yl]methyl}(2-hydroxyethyl)amino]sulfonyl}phenyl)acetamide] | 6.9 nM
9 | C[C@]12Cc3cnn(-c4ccc(F)cc4)c3C=C1CC[C@@H]2CN(CCO)S(=O)(=O)c1cccc(C#N)c1 [Example 68, 3-cyano-N-{[(4αR,5S)-1-(4-fluorophenyl)-4α-methyl-1,4,4α,5,6,7-hexahydrocyclopenta[f]indazol-5-yl]methyl}-N-(2-hydroxyethyl)benezenesulfonamide] | 3.6 nM

These reach a lower Ki. Values come first.

Row | Ki | Compound
10 | 2.2 nM | C[C@]12Cc3cnn(-c4ccc(F)cc4)c3C=C1CC[C@@H]2CN(CC1CC1)S(=O)(=O)c1ccccc1C(F)(F)F [Example 4, N-(cyclopropylmethyl)-N-{[(4αR,5S)-1-(4-fluorophenyl)-4α-methyl-1,4,4α,5,6,7-hexahydrocyclopenta[f]indazol-5-yl]methyl}-2-(trifluoromethyl)benzenesulfonamide]
11 | 2.6 nM | C[C@]12Cc3cnn(-c4ccc(F)cc4)c3C=C1CC[C@@H]2CN(CCO)S(=O)(=O)c1ccccc1-c1ccccc1 [Example 84, N-{[(4αR,5S)-1-(4-fluorophenyl)-4α-methyl-1,4,4α,5,6,7-hexahydrocyclopenta[f]indazol-5-yl]methyl}-N-(2-hydroxyethyl)biphenyl-2-sulfonamide]
12 | 2.5 nM | C[C@]12Cc3cnn(-c4ccc(F)cc4)c3C=C1CC[C@@H]2CN(CCO)S(=O)(=O)Cc1ccccc1 [Example 75, N-{[(4αR,5S)-1-(4-fluorophenyl)-4α-methyl-1,4,4α,5,6,7-hexahydrocyclopenta[f]indazol-5-yl]methyl}-N-(2-hydroxyethyl)-1-phenylmethanesulfonamide]
13 | 2.7 nM | Cn1cc(S(=O)(=O)N(CCO)C[C@H]2CCC3=Cc4c(cnn4-c4ccc(F)cc4)C[C@@]32C)c(C(F)(F)F)n1 [Example 65, N-{[(4αR,5S)-1-(4-fluorophenyl)-4α-methyl-1,4,4α,5,6,7-hexahydrocyclopenta[f]indazol-5-yl]methyl}-N-(2-hydroxyethyl)-1-methyl-3-(trifluoromethyl)-1H-pyrazole-4-sulfonamide]
14 | 2.8 nM | CCCS(=O)(=O)N(CCc1ccccc1F)C[C@H]1CCC2=Cc3c(cnn3-c3ccc(F)cc3)C[C@@]21C [Example 87, N-[2-(2-fluorophenyl)ethyl]-N-{[(4αR,5S)-1-(4-fluorophenyl)-4α-methyl-1,4,4α,5,6,7-hexahydrocyclopenta[f]indazol-5-yl]methyl}propane-1-sulfonamide]
15 | 2.7 nM | CC(C1CCC2=Cc3c(cnn3-c3ccc(F)cc3)C[C@@]21C)N(CCc1ccccc1F)S(=O)(=O)CC(F)(F)F (stereo partly drawn) [Example 93, 2,2,2-trifluoro-N-[2-(2-fluorophenyl)ethyl]-N-{1-[(4αR)-1-(4-fluorophenyl)-4α-methyl-1,4,4α,5,6,7-hexahydrocyclopenta[f]indazol-5-yl]ethyl}ethanesulfonamide]
16 | 2.4 nM | C[C@]12Cc3cnn(-c4ccc(F)cc4)c3C=C1CC[C@@H]2CN(CCc1ccccc1F)S(=O)(=O)CC(F)(F)F [Example 89, 2,2,2-trifluoro-N-[2-(2-fluorophenyl)ethyl]-N-{[(4αR,5S)-1-(4-fluorophenyl)-4α-methyl-1,4,4α,5,6,7-hexahydrocyclopenta[f]indazol-5-yl]methyl}ethanesulfonamide]
17 | 0.8 nM | C=CCN(C[C@H]1CCC2=Cc3c(cnn3-c3ccc(F)cc3)C[C@@]21C)S(=O)(=O)c1ccccc1F [Example 3, N-allyl-2-fluoro-N-{[(4αR,5S)-1-(4-fluorophenyl)-4α-methyl-1,4,4α,5,6,7-hexahydrocyclopenta[f]indazol-5-yl]methyl}benzenesulfonamide]
18 | 0.6 nM | C[C@]12Cc3cnn(-c4ccc(F)cc4)c3C=C1CC[C@@H]2CN(CC1CC1)S(=O)(=O)c1ccccc1F [Example 2, N-(cyclopropylmethyl)-2-fluoro-N-{[(4αR,5S)-1-(4-fluorophenyl)-4α-methyl-1,4,4α,5,6,7-hexahydrocyclopenta[f]indazol-5-yl]methyl}benzenesulfonamide]
19 | 2.3 nM | C[C@]12Cc3cnn(-c4ccc(F)cc4)c3C=C1CC[C@@H]2CN(CCO)S(=O)(=O)c1ccccc1C#N [Example 78, 2-cyano-N-{[(4αR,5S)-1-(4-fluorophenyl)-4α-methyl-1,4,4α,5,6,7-hexahydrocyclopenta[f]indazol-5-yl]methyl}-N-(2-hydroxyethyl)benzenesulfonamide]
